According to ChEMBL document CHEMBL4376876 (J Med Chem, 2020):
In brackets after ≈: the same amount, converted by molar mass.

What was measured:
[1] = tested on: Mycobacterium tuberculosis; test: Antibacterial activity against Mycobacterium tuberculosis H37Rv after 7 days by resazurin dye-based assay; format: functional; settings: 168 h
[2] = tested on: Mycobacterium tuberculosis; test: Antimycobacterial activity against Mycobacterium tuberculosis H37Rv transfected with pMV261 empty vector after 7 days by resazurin dye-based assay; format: functional; settings: 168 h
[3] = tested on: Mycobacterium tuberculosis; test: Antimycobacterial activity against Mycobacterium tuberculosis H37Rv over expressing InhA after 7 days by resazurin dye-based assay; format: functional; settings: 168 h
[4] = Stability in Middlebrook 7H9 medium at 10 ug/ml after 7 days relative to control; format: physicochemical; settings: read-out: Stability

SMILES | MIC [1] [µM] | MIC [2] [µM] | MIC [3] [µM] | remaining at 168 h, 10 ug/ml [4] [%]
CC(C)[C@H]1OC(=O)[C@H](C)[C@H](O)[C@H](Cc2cccnc2)NC(=O)[C@@H](NC(=O)c2ncccc2O)[C@@H](C)OC1=O | 3.2 (≈ 1.69 µg/mL) | 3.1 (≈ 1.64 µg/mL) | 24.2 (≈ 12.8 µg/mL) | 
CC(C)[C@@H]1OC(=O)[C@H](C)[C@H](O)[C@H](Cc2cccnc2)NC(=O)[C@@H](NC(=O)c2ncccc2O)[C@@H](C)OC1=O | 26 (≈ 13.7 µg/mL) |  |  | 
C[C@H]1OC(=O)[C@@H]([C@@H](C)c2ccccc2)OC(=O)[C@H](C)[C@H](O)[C@H](Cc2cccnc2)NC(=O)[C@H]1NC(=O)c1ncccc1O | 2.6 (≈ 1.54 µg/mL) |  |  | 
CC[C@@H](C)[C@H]1NC(=O)[C@H](C)[C@H](O)[C@H](Cc2cccnc2)NC(=O)[C@@H](NC(=O)c2ncccc2O)[C@@H](C)OC1=O | 185 (≈ 100 µg/mL) |  |  | 
CC[C@H]1OC(=O)[C@H](C)[C@H](O)[C@H](Cc2cccnc2)NC(=O)[C@@H](NC(=O)c2ncccc2O)[C@@H](C)OC1=O | 4.9 (≈ 2.52 µg/mL) | 4.9 (≈ 2.52 µg/mL) | > 19.1 | 
C[C@H](c1ccccc1)[C@H]1OC(=O)[C@H](C)[C@H](O)[C@H](Cc2cccnc2)NC(=O)[C@@H](NC(=O)c2ncccc2O)[C@@H](C)OC1=O | 2.6 (≈ 1.54 µg/mL) |  |  | 
C[C@H]1OC(=O)[C@H](C)[C@H](O)[C@H](Cc2cccnc2)NC(=O)[C@@H](NC(=O)c2ncccc2O)[C@@H](C)OC1=O | 49.9 (≈ 25 µg/mL) |  |  | 
CC[C@@H](C)[C@H]1OC(=O)[C@H](C)[C@H](O)[C@H](Cc2cccnc2)NC(=O)[C@@H](NC(=O)c2ncccc2O)[C@@H](C)OC1=O | 1.5 (≈ 0.814 µg/mL) |  |  | 
C[C@@H]1C(=O)N[C@H](C2CCCCC2)C(=O)O[C@H](C)[C@H](NC(=O)c2ncccc2O)C(=O)N[C@@H](Cc2cccnc2)[C@@H]1O | 136 (≈ 77.1 µg/mL) |  |  | 
C[C@H]1OC(=O)[C@@H](CO)OC(=O)[C@H](C)[C@H](O)[C@H](Cc2cccnc2)NC(=O)[C@H]1NC(=O)c1ncccc1O | 96.8 (≈ 50 µg/mL) |  |  | 
C[C@H]1OC(=O)[C@@H](Cc2ccccc2)OC(=O)[C@H](C)[C@H](O)[C@H](Cc2cccnc2)NC(=O)[C@H]1NC(=O)c1ncccc1O | 4.3 (≈ 2.48 µg/mL) | 4.3 (≈ 2.48 µg/mL) | > 17.3 | 
CC[C@H](C)[C@H]1OC(=O)[C@H](C)[C@H](O)[C@H](Cc2cccnc2)NC(=O)[C@@H](NC(=O)c2ncccc2O)[C@@H](C)OC1=O | 2.9 (≈ 1.57 µg/mL) | 2.9 (≈ 1.57 µg/mL) | 2.9 (≈ 1.57 µg/mL) | 
CC(C)[C@H]1NC(=O)[C@@H](C)[C@@H](O)[C@H](Cc2cccnc2)NC(=O)[C@@H](NC(=O)c2ncccc2O)[C@@H](C)OC1=O | 94.6 (≈ 49.9 µg/mL) |  |  | 
NNC(=O)c1ccncc1 [ISONIAZID] |  | 1.2 (≈ 0.165 µg/mL) | 37.3 (≈ 5.12 µg/mL) | 
CC/C(C)=C1\OC(=O)[C@H](C)[C@H](O)[C@H](Cc2cccnc2)NC(=O)[C@@H](NC(=O)c2ncccc2O)[C@@H](C)OC1=O [PYRIDOMYCIN] | 0.55 to 3.05 (≈ 0.297 to 1.65 µg/mL) | 0.74 (≈ 0.4 µg/mL) | 11.6 (≈ 6.25 µg/mL) | > 50
